Patent publication US20250144187A1, “COMBINATION OF HYDROLASES AND ANTI-MICROORGANISM DRUGS AND USES THEREOF” (CENTRE FOR EYE AND VISION RESEARCH LIMITED, priority 2023, published 2025)
Read-outs that look alike come from different tables or passages of the source.

Key:
MRSA = assay: Nascent protein synthesis analysis (OPP probe); type: cell-based; conditions: Staphylococcus aureus, 1 h, read-out: minimal dosage of tedizolid phosphate for synthesis inhibition of half of the nascent protein
Method: 12) Nascent protein synthesis analysis. According to the previously reported method [Forester, C. M et al., Proc. Nat. […] Specifically, mid-log-phase MRSA with OD600 of 0.4 to 0.6 was treated with lysozyme, tedizolid phosphate or their combination at different concentrations at 37° C. for 1 hour. These bacteria served as related negative control groups. Positive control groups had similar protocols but with addition of 20 μM OPP. After 1 hour incubation, all bacteria were collected washed by cold PBS for 3 times and fixed by 3.7% formaldehyde in PBS, followed by re-suspension in lysis buffer containing 0.5% Triton® X-100. Then, these fixed and permeabilized cells were incubated with Click-iT™ plus OPP reaction cocktail according to the standard protocol [Forester, C. M et al., Proc. Nat. Acad. U.S.A. 115, 2353-2358 (2018)]. After 30 minutes incubation in the prevention of light at room temperature, the reaction cocktail was removed. Next, these fixed cells in 96-well plate were washed by using 200 μl/well of Click-iT® reaction rinse buffer, followed by further incubation with 1×HCS nuclear Mask™ blue stain working solution. After 30 minutes incubation in the prevention of light at room temperature, the nuclear Mask™ blue stain working solution was removed. […] Inhibition degrees of nascent proteins synthesis were expressed with fluorescence ratio (Alexa Fluor®/nuclear Mask™) as average±SD. […]

[1] = system: alkaline phosphatase extracted from MRSA; assay: Enzyme activity of alkaline phosphatase (in vitro hydrolysis of tedizolid phosphate); type: biochemical, Staphylococcus aureus; conditions: enzyme from MRSA of the combination therapy group, after 1 hour
Method: 14) Enzyme activity of alkaline phosphatase. All enzyme activities of alkaline phosphatase were analyzed according to the modified method as previously described [Zhao, X.-y et al., Nature 46, 86-90 (2009); Zhang, XC e al., Anal. Chem. 92, 5185-5190 (2020); Rosch, J. & Caparon, M. Science 304, 1513-1151 (2004); Wang. W et al., PLoS One 10, e012403512013); Ghosh, S. S et al., Circ. Res. 128, 1646-1659 (2021)]. Briefly, mid-log-phase MRSA or MRSE was treated with lysozyme, tedizolid phosphate or their combination at different concentrations. Those without any treatment served as untreated group. After incubation at 37° C. for 1 hour, all samples were collected, washed by distilled water and re-suspended in distilled water to collect bacterial suspension with an initial density of about 5.0×10^12 CFU/ml according to pre-experiment. Then, sonication lysis for 40 minutes at 4° C. and centrifugation at 18,000 g at 4° C. for 20 minutes were performed to collect these supernatants. Next, 20 μl of each supernatant was incubated with 4 μg of tedizolid phosphate. […] These slides were visualized under fluorescence microscopy and randomly selected bacteria were analyzed at ×1,500 magnification. To quantify the enzyme activity, similar protocol was performed on cell lysis supernatant instead of above-described bacterial suspension. Finally, absorption spectrums (300-800 nm) were collected and analyzed. […]

MRSE = assay: Check board broth micro-dilution assay, tedizolid phosphate with lysozyme; type: cell-based, Staphylococcus epidermis; conditions: tedizolid phosphate and lysozyme
Method: 2) Check board broth micro-dilution assays. According to standard two-fold dilution method [Sun. H et al., Nat. Commun. 11, 5263 (2020) tedizolid phosphate at different concentrations were added into fresh LB medium (or trypticase soy troth medium with 5% defibrinated horse blood) containing different concentrations of human lysozyme in 96-well plate. Then, 20 μl of 1.0×10^7 CFU/ml logarithmic cultures of MRSA or MRSE were added into each well of the plate and co-incubated overnight. Drug-free LB medium in the absence or presence of bacteria served as background control and growth control group, respectively. […] Thus, there would be a series of FICI values. In most of cases, the lowest one among these values was listed to reflect the best achieving degree of combination therapy. In terms of the lowest FICI, FICI≤0.5, 0.5<FICI<1 or FICI≥1, would indicate the combination has synergy, part synergy or non-synergy effects, respectively.

Cn1nnc(-c2ccc(-c3ccc(N4C[C@H](COP(=O)(O)O)OC4=O)cc3F)cn2)n1 [tedizolid phosphate, Tedizolid Phosphate]
IC50 (MRSA; combination with 0.5 mg/ml lysozyme): 0.32 µg/mL
IC50 (MRSA; monotherapy): 9.5 µg/mL
tedizolid phosphate hydrolyzed [1]: up to 65%
fractional inhibitory concentration index (FICI) (MRSE): < 0.023
